Test results: article PMC9617638 (Journal of medicinal chemistry, 2019)
“And” between values parts separate entries of the source, which are not always exact repeats. Identical values can stand only once. “Also recorded” adds a separate entry of the source.

Assays:
hERG = hERG (Homo sapiens, UniProt Q12809); assay: hERG current block; format: cell-based; settings: hERG IC50 over DAT Ki
[1] = Phase I metabolic stability in mouse liver microsomes; format: in vitro ADME; settings: for compound remaining: mouse microsomes fortified with NADPH, 60 min (1 h); for phase I metabolic stability (in words): mouse liver microsomes, 60 min
[2] = Off-target binding interactions; settings: concentration of 100 nM
DAT = DAT (Rattus norvegicus, UniProt P23977); assay: DAT binding assay, [3H]WIN 35,428, rat striatum membranes; settings: for DAT Ki values (in words): terminal piperazine amine changed to amide
σ1 receptor = σ1 receptor (Cavia porcellus, UniProt Q60492); assay: σ1 receptor binding assay, [3H]; design: species or system guinea pig; settings: for selectivity for σ1R over DAT and SERT (in words): σ1R versus monoamine transporters
SERT = SERT (Rattus norvegicus, UniProt P31652); assay: SERT binding assay, [3H]citalopram, rat brain stem membranes; settings: DAT versus SERT Ki
DAT Y156F mutant = DAT Y156F mutant (Homo sapiens, UniProt Q01959, Y156F); format: binding; settings: read-out: Y156F Ki, COS7 cells, mean [SE interval]
[3] = Metabolic stability in human liver microsomes; format: in vitro ADME
mouse locomotion = assay: Locomotor activity in mice; format: in vivo; settings: i.p., 2 h session, cocaine 3-30 mg/kg, 14a 1-30 mg/kg, 14b/14c 1-10 mg/kg

Sequence of SERT (P31652 whole entry): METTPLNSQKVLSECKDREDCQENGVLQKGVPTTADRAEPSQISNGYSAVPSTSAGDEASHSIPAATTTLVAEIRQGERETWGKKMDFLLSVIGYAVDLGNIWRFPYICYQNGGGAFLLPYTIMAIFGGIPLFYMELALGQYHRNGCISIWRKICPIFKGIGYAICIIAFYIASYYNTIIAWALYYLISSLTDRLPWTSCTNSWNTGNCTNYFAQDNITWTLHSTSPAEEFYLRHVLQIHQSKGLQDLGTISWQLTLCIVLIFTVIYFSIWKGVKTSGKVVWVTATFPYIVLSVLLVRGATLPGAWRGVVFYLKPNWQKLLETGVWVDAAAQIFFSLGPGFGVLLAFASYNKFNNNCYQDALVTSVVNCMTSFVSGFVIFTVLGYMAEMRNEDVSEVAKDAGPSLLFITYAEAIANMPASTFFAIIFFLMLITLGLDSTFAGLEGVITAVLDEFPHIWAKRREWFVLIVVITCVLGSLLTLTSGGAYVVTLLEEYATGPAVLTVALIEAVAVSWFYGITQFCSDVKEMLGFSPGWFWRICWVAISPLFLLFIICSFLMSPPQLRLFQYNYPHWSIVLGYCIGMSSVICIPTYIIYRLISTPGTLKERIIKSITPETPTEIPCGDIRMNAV
Sequence of DAT (P23977 whole entry): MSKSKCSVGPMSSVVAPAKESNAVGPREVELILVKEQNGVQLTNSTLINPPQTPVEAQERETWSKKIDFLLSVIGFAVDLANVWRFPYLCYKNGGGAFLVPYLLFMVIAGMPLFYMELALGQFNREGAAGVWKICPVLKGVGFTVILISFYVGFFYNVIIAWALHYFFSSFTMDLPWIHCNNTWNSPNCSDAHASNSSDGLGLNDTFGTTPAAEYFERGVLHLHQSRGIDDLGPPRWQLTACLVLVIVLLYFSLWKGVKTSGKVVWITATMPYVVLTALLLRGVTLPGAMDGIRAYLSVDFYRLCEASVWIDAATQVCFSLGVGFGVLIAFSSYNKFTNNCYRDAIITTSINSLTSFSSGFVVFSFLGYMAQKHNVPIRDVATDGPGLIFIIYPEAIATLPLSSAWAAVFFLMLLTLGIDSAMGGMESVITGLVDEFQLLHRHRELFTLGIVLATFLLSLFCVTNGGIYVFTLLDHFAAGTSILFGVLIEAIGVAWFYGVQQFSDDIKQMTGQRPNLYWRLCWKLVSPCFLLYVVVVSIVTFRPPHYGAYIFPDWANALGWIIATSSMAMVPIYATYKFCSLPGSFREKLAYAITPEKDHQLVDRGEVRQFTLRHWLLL
Sequence of σ1 receptor (Q60492 whole entry): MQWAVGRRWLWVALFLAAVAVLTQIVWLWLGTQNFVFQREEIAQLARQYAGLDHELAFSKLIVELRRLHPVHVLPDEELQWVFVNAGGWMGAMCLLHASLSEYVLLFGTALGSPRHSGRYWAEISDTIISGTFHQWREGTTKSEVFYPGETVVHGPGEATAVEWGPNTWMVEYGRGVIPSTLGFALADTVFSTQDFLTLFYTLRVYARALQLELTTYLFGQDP
Sequence of hERG (Q12809 whole entry): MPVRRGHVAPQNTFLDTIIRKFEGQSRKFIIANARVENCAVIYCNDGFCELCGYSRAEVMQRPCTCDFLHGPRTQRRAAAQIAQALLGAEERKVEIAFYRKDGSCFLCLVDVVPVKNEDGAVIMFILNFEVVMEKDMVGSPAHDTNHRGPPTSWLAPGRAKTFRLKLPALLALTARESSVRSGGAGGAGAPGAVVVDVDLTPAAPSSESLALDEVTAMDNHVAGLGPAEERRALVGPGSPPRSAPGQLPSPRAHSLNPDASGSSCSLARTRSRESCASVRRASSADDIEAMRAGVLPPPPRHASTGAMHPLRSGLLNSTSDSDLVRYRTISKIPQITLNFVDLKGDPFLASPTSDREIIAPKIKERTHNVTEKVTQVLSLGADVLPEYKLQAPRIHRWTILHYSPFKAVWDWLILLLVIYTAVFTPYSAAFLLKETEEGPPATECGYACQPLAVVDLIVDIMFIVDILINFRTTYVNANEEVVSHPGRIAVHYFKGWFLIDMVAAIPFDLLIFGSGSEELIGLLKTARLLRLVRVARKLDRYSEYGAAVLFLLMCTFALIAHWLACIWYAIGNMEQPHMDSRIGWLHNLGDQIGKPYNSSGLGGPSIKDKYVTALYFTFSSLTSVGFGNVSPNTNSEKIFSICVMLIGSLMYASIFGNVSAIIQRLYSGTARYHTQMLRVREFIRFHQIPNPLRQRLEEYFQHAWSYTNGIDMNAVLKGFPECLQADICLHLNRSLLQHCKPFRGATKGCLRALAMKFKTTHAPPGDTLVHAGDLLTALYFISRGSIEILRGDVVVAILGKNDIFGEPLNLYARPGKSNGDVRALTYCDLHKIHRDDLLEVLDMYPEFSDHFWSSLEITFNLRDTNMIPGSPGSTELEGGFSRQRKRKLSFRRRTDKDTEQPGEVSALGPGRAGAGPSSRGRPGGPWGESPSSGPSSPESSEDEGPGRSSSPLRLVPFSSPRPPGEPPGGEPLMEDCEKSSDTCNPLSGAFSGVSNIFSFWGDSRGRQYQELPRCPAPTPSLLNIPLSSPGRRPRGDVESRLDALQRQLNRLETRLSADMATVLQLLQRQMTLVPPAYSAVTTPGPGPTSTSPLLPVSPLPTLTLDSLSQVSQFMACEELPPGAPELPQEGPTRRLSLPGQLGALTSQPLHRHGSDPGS
Sequence of DAT Y156F mutant (Q01959 whole entry Y156F): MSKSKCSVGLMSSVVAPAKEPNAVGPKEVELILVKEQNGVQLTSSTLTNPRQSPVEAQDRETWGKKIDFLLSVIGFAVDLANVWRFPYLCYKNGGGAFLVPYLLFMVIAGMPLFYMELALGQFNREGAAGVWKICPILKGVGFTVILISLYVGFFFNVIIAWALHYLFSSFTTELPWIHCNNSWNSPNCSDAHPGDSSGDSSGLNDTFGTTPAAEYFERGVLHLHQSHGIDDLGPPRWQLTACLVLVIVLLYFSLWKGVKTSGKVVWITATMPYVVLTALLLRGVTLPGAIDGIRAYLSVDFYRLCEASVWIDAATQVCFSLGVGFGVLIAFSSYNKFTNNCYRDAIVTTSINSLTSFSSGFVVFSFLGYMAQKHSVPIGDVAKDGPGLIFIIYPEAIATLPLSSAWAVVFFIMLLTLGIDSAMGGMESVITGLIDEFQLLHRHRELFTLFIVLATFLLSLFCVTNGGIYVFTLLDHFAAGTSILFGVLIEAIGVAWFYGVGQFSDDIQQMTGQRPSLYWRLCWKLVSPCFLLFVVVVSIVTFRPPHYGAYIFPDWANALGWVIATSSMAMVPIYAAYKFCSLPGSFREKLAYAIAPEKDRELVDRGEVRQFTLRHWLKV

CC(O)CN1[C@H](C)CN(CC[S+]([O-])C(c2ccc(F)cc2)c2ccc(F)cc2)C[C@@H]1C (stereo partly drawn) [15a, 1-(4-(2-((Bis(4-fluorophenyl)methyl)sulfinyl)ethyl)-2,6-cis-dimethylpiperazin-1-yl)propan-2-ol]
hERG/DAT affinity ratio (hERG): 30
compound remaining [1]: 30–44%
off-target interactions [2]: no significant interactions

[O-][S+](CCCN1CCN(CCCc2ccccc2)CC1)C(c1ccc(F)cc1)c1ccc(F)cc1 (stereo not shown) [12c, 1-(3-((Bis(4-fluorophenyl)methyl)sulfinyl)propyl)-4-(3-phenylpropyl)piperazine]
phase I metabolic stability (in words) [1]: almost no compound present after 60 min

C[C@H](O)CN1CCN(CC[S+]([O-])C(c2ccc(F)cc2)c2ccc(F)cc2)CC1 (stereo partly drawn) [12a, (S)-1-(4-(2-((Bis(4-fluorophenyl)methyl)sulfinyl)ethyl)piperazin-1-yl)propan-2-ol]
phase I metabolic stability (in words) [1]: exceptional and similar metabolic stability

CCC(=O)N1CCN(CCSC(c2ccc(F)cc2)c2ccc(F)cc2)CC1 [11d, 1-(4-(2-((Bis(4-fluorophenyl)methyl)thio)ethyl)piperazin-1-yl)propan-1-one]
DAT Ki values (in words) (DAT): low micromolar range
selectivity for σ1R over DAT and SERT (in words) (σ1 receptor): σ1R selective
selectivity for DAT over SERT (in words) (SERT): equivalent

C[C@@H](O)CN1CCN(CC[S+]([O-])C(c2ccc(F)cc2)c2ccc(F)cc2)CC1 (stereo partly drawn) [12b, (R)-1-(4-(2-((Bis(4-fluorophenyl)methyl)sulfinyl)ethyl)piperazin-1-yl)propan-2-ol]
phase I metabolic stability (in words) [1]: exceptional and similar metabolic stability

CC(O)CN1CCN(CCSC(c2ccc(F)cc2)c2ccc(F)cc2)CC1 (stereo not shown) [3a, reference compound]
hERG/DAT affinity ratio (hERG): 3

O[C@H](Cc1ccccc1)CN1CCN(CCSC(c2ccc(F)cc2)c2ccc(F)cc2)CC1 [8e, (R)-1-(4-(2-((Bis(4-fluorophenyl)methyl)thio)ethyl)piperazin-1-yl)-3-phenylpropan-2-ol]
phase I metabolic stability (in words) [1]: almost no compound present after 60 min

CC(O)CN1[C@H](C)CN(CCSC(c2ccc(F)cc2)c2ccc(F)cc2)C[C@@H]1C (stereo partly drawn) [14a, 1-(4-(2-((Bis(4-fluorophenyl)methyl)thio)ethyl)-2,6-cis-dimethylpiperazin-1-yl)propan-2-ol]
higher binding affinity at σ1 receptors than at DAT (σ1 receptor; σ1 versus DAT): ~ 4 fold
Ki (DAT Y156F mutant): 269 nM
metabolic stability (in words) [3]: moderate metabolic stability
locomotor (ambulatory) activity, maximum distance traveled in 30 min (mouse locomotion): not significantly different than vehicle; also recorded: only moderate locomotor stimulation
off-target interactions [2]: no significant interactions

CC(O)CN1CCC2(CCN(CC[S+]([O-])C(c3ccc(F)cc3)c3ccc(F)cc3)CC2)C1 (stereo not shown) [compound 19, 1-(8-(2-((Bis(4-fluorophenyl)methyl)sulfinyl)ethyl)-2,8-diazaspiro[4.5]decan-2-yl)propan-2-ol]
selectivity for σ1R over DAT and SERT (in words) (σ1 receptor): binding preference for σ1R
selectivity for DAT over SERT (in words) (SERT): not selective for DAT over SERT; also recorded: equivalent

C[C@@H]1CN(CC[S+]([O-])C(c2ccc(F)cc2)c2ccc(F)cc2)C[C@H](C)N1CC(O)Cc1ccccc1 (stereo partly drawn) [15b, 1-(4-(2-((Bis(4-fluorophenyl)methyl)sulfinyl)ethyl)-2,6-cis-dimethylpiperazin-1-yl)-3-phenylpropan-2-ol]
phase I metabolic stability (in words) [1]: almost no compound present after 60 min
off-target interactions [2]: no significant interactions

CC(=O)CN1CCN(CCSC(c2ccc(F)cc2)c2ccc(F)cc2)CC1 [8g, 1-(4-(2-((Bis(4-fluorophenyl)methyl)thio)ethyl)piperazin-1-yl)propan-2-one]
decrease of DAT affinity compared to 3a (DAT; 2-propanol oxidised to 2-propanone): ~ 5 fold
selectivity for σ1R over DAT and SERT (in words) (σ1 receptor): σ1R selective

OC(Cc1ccc(F)cc1)CN1CCN(CCSC(c2ccc(F)cc2)c2ccc(F)cc2)CC1 (stereo not shown) [8a, 1-(4-(2-((Bis(4-fluorophenyl)methyl)thio)ethyl)piperazin-1-yl)-3-(4-fluorophenyl)propan-2-ol]
phase I metabolic stability (in words) [1]: almost no compound present after 60 min

CC(O)CN1CCN(CC[S+]([O-])C(c2ccc(F)cc2)c2ccc(F)cc2)CC1 (stereo not shown) [3b, 1-(4-(2-((bis(4-fluorophenyl)methyl)sulfinyl)ethyl)-piperazin-1-yl)-propan-2-ol, reference compound]
off-target interactions [2]: no significant interactions

OC(CN1CCC2(CCN(CCSC(c3ccc(F)cc3)c3ccc(F)cc3)CC2)C1)c1ccccc1 (stereo not shown) [18b, 2-(8-(2-((Bis(4-fluorophenyl)methyl)thio)ethyl)-2,8-diazaspiro[4.5]decan-2-yl)-1-phenylethan-1-ol]
selectivity for σ1R over DAT and SERT (in words) (σ1 receptor): binding preference for σ1R
selectivity for DAT over SERT (in words) (SERT): not selective for DAT over SERT; also recorded: equivalent
compound remaining [1]: 30–44% and 44%

1-(4-(2-((Bis(4-fluorophenyl)methyl)thio)ethyl)piperazin-1-yl)-2-phenylethan-1-one [8f]
DAT Ki values (in words) (DAT): low micromolar range
selectivity for σ1R over DAT and SERT (in words) (σ1 receptor): σ1R selective
selectivity for DAT over SERT (in words) (SERT): equivalent

O[C@@H](Cc1ccccc1)CN1CCN(CCSC(c2ccc(F)cc2)c2ccc(F)cc2)CC1 [8d, (S)-1-(4-(2-((Bis(4-fluorophenyl)methyl)thio)ethyl)piperazin-1-yl)-3-phenylpropan-2-ol]
phase I metabolic stability (in words) [1]: almost no compound present after 60 min
